From patent US8916567B2, “Certain crystalline hydrates, pharmaceutical compositions thereof and methods for preparation and use thereof” (Universal Technology Alliance, Inc., priority 2009, dated 2014)

What was measured:
[1] = Solubility in different solvents according to Chinese Pharmacopeia (2005 edition); assay type: physicochemical; settings: for Solubility compared with the anhydride: different solvents; for Result: at the given solute:solvent ratio
Experimental: The solubility of the (S)—[N-3-(3′-fluoro-4′-(4″-phenylpiperazinyl))phenyl-2-oxo-5-oxazolelidinyl]methylacetamide hydrates was tested with different solvents, and the test results are shown in Tables 15-19. The solubility was measured according to Chinese Pharmacopeia (2005 edition).

[2] = system: Staphylococcus aureus MRSA; assay: Minimum inhibitory concentration (MIC) in vitro, agar dilution method; assay type: cell-based; settings: hydrate; for MIC50 / MIC90 / MICrange: S. MRSA (10 strains), clinically isolated
In short: (§1)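 MIC50, MIC90 and MIC range were compiled from per-strain MICs obtained by the agar dilution method recommended by CLSI/NCCLS, using clinically isolated strains from Sichuan and Beijing.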

E. feacium = assay: as above; assay type: cell-based; settings: hydrate; for MIC50 / MIC90 / MICrange: E. feacium (5 strains), clinically isolated
In short: as §1

S. epidermidis MSSE = assay: as above; assay type: cell-based; settings: hydrate; for MIC50 / MIC90 / MICrange: S. ep MSSE (10 strains), clinically isolated
In short: as §1

[3] = system: Staphylococcus aureus MSSA; assay: as above; assay type: cell-based; settings: hydrate; for MIC50 / MIC90 / MICrange: S. MSSA (11 strains), clinically isolated
In short: as §1

S. epidermidis MRSE = assay: as above; assay type: cell-based; settings: hydrate; for MIC50 / MIC90 / MICrange: S. ep MRSE (10 strains), clinically isolated
In short: as §1

E. feacalis = assay: as above; assay type: cell-based; settings: hydrate; for MIC50 / MIC90 / MICrange: E. feacalis (5 strains), clinically isolated
In short: as §1

Staphylococcus aureus = assay: Minimum inhibitory concentration (MIC) in vitro, agar dilution method, quality control strain; assay type: cell-based; settings: strain S. AT C C25923 (Table 7 No. 1); hydrate
In short: as §1

[4] = strain S. MRSA 29 (Table 7 No. 15)
[5] = strain S. MRSA 101 (Table 7 No. 14)
[6] = strain S. MRSA 201 (Table 7 No. 13)
[7] = strain S. MRSA B27 (Table 7 No. 21)
[8] = strain S. MRSA B105 (Table 7 No. 17)
[9] = strain S. MRSA B143 (Table 7 No. 19)
[10] = strain S. MRSA B151 (Table 7 No. 20)
[11] = strain S. MRSA B164 (Table 7 No. 16)
[12] = strain S. MRSA B199 (Table 7 No. 22)
[13] = strain S. MRSA B617 (Table 7 No. 18)
[14] = strain Efm 171 (Table 8 No. 25)
[15] = strain Efm 197 (Table 8 No. 22)
[16] = strain S. ep MSSE87 (Table 7 No. 23)
[17] = strain S. ep MSSE88 (Table 8 No. 5)
[18] = strain S. ep MSSE113 (Table 7 No. 24)
[19] = strain S. ep MSSE116 (Table 7 No. 25)
[20] = strain S. ep MSSE118 (Table 8 No. 2)
[21] = strain S. ep MSSE119 (Table 7 No. 27)
[22] = strain S. ep MSSE137 (Table 8 No. 4)
[23] = strain S. ep MSSE140 (Table 8 No. 3)
[24] = strain S. ep MSSE142 (Table 7 No. 26)
[25] = strain S. ep MSSE153 (Table 8 No. 1)
[26] = strain S. MSSA 123 (Table 7 No. 3)
[27] = strain S. MSSA 187 (Table 7 No. 7)
[28] = strain S. MSSA 195 (Table 7 No. 6)
[29] = strain S. MSSA 195 (Table 7 No. 12)
[30] = strain S. MSSA 201 (Table 7 No. 11)
[31] = strain S. MSSA 232 (Table 7 No. 2)
[32] = strain S. MSSA 275 (Table 7 No. 10)
[33] = strain S. MSSA 466 (Table 7 No. 8)
[34] = strain S. MSSA 519 (Table 7 No. 9)
[35] = strain S. MSSA 520 (Table 7 No. 4)
[36] = strain S. MSSA 580 (Table 7 No. 5)
[37] = strain S. ep MRSE4 (Table 8 No. 9)
[38] = strain S. ep MRSE20 (Table 8 No. 6)
[39] = strain S. ep MRSE87 (Table 8 No. 13)
[40] = strain S. ep MRSE90 (Table 8 No. 10)
[41] = strain S. ep MRSE101 (Table 8 No. 7)
[42] = strain S. ep MRSE105 (Table 8 No. 11)
[43] = strain S. ep MRSE140 (Table 8 No. 14)
[44] = strain S. ep MRSE142 (Table 8 No. 12)
[45] = strain S. ep MRSE210 (Table 8 No. 15)
[46] = strain S. ep MRSE211 (Table 8 No. 8)
[47] = strain Efa 116 (Table 8 No. 16)
[48] = strain Efa 907 (Table 8 No. 19)
[49] = strain Efa 3006 (Table 8 No. 18)
[50] = strain Efa 33748 (Table 8 No. 17)

Structure (SMILES): CC(=O)NC[C@H]1CN(c2ccc(N3CCN(c4ccccc4)CC3)c(F)c2)C(=O)O1 [2/7 hydrate, (S)—[N-3-(3′-fluoro-4′-(4″-phenylpiperazinyl))phenyl-2-oxo-5-oxazolidinyl]methyl acetamide 2/7 hydrate]
- Solubility compared with the anhydride [1]: sometimes more soluble than the anhydride
- Result ([1]; solvent 0.1N Hydrochloric acid): Dissolved
- Result ([1]; solvent 0.1N Sodium hydroxide): Insoluble
- Result ([1]; solvent Acetonitrile): Dissolved
- Result ([1]; solvent Ethanol): Dissolved
- Result ([1]; solvent Methanol): Dissolved
- Result ([1]; solvent Water, hydrate): Dissolved
- MIC50 [2]: 0.5 mg/L
- MIC90 [2]: 0.5 mg/L
- MICrange [2]: 0.5 to 1 µg/mL
- MIC [2, 4]: 0.5 mg/L
- MIC [2, 5]: 1 mg/L
- MIC [2, 6]: 0.5 mg/L
- MIC [2, 7]: 0.5 mg/L
- MIC [2, 8]: 0.5 mg/L
- MIC [2, 9]: 0.5 mg/L
- MIC [2, 10]: 0.5 mg/L
- MIC [2, 11]: 0.5 mg/L
- MIC [2, 12]: 0.5 mg/L
- MIC [2, 13]: 0.5 mg/L
- MIC50 (E. feacium): 1 mg/L
- MIC90 (E. feacium): 1 mg/L
- MICrange (E. feacium): 0.5 to 1 µg/mL
- MIC (E. feacium; strain Efm 98 (Table 8 No. 21)): 0.5 mg/L
- MIC (E. feacium; [14]): 1 mg/L
- MIC (E. feacium; [15]): 0.5 mg/L
- MIC (E. feacium; strain Efm N3 (Table 8 No. 23)): 1 mg/L
- MIC (E. feacium; strain Efm N4 (Table 8 No. 24)): 1 mg/L
- MIC50 (S. epidermidis MSSE): 0.5 mg/L
- MIC90 (S. epidermidis MSSE): 0.5 mg/L
- MICrange (S. epidermidis MSSE): 0.25 to 0.5 µg/mL
- MIC (S. epidermidis MSSE; [16]): 0.125 mg/L
- MIC (S. epidermidis MSSE; [17]): 0.5 mg/L
- MIC (S. epidermidis MSSE; [18]): 0.25 mg/L
- MIC (S. epidermidis MSSE; [19]): 0.25 mg/L
- MIC (S. epidermidis MSSE; [20]): 0.5 mg/L
- MIC (S. epidermidis MSSE; [21]): 0.25 mg/L
- MIC (S. epidermidis MSSE; [22]): 0.5 mg/L
- MIC (S. epidermidis MSSE; [23]): 0.5 mg/L
- MIC (S. epidermidis MSSE; [24]): 0.5 mg/L
- MIC (S. epidermidis MSSE; [25]): 0.5 mg/L
- MIC50 [3]: 0.5 mg/L
- MIC90 [3]: 0.5 mg/L
- MICrange [3]: 0.5 to 1 µg/mL
- MIC [3, 26]: 0.5 mg/L
- MIC [3, 27]: 0.5 mg/L
- MIC [3, 28]: 1 mg/L
- MIC [3, 29]: 0.5 mg/L
- MIC [3, 30]: 0.5 mg/L
- MIC [3, 31]: 0.5 mg/L
- MIC [3, 32]: 0.5 mg/L
- MIC [3, 33]: 0.5 mg/L
- MIC [3, 34]: 0.5 mg/L
- MIC [3, 35]: 0.25 mg/L
- MIC [3, 36]: 0.25 mg/L
- MIC50 (S. epidermidis MRSE): 0.5 mg/L
- MIC90 (S. epidermidis MRSE): 0.5 mg/L
- MICrange (S. epidermidis MRSE): 0.25 to 0.5 µg/mL
- MIC (S. epidermidis MRSE; [37]): 0.25 mg/L
- MIC (S. epidermidis MRSE; [38]): 0.5 mg/L
- MIC (S. epidermidis MRSE; [39]): 0.5 mg/L
- MIC (S. epidermidis MRSE; [40]): 0.5 mg/L
- MIC (S. epidermidis MRSE; [41]): 0.25 mg/L
- MIC (S. epidermidis MRSE; [42]): 0.5 mg/L
- MIC (S. epidermidis MRSE; [43]): 0.5 mg/L
- MIC (S. epidermidis MRSE; [44]): 0.5 mg/L
- MIC (S. epidermidis MRSE; [45]): 0.5 mg/L
- MIC (S. epidermidis MRSE; [46]): 0.5 mg/L
- MIC50 (E. feacalis): 0.25 mg/L
- MIC90 (E. feacalis): 0.5 mg/L
- MICrange (E. feacalis): 0.125 to 0.5 µg/mL
- MIC (E. feacalis; [47]): 0.5 mg/L
- MIC (E. feacalis; [48]): 0.25 mg/L
- MIC (E. feacalis; [49]): 0.25 mg/L
- MIC (E. feacalis; [50]): 0.5 mg/L
- MIC (Staphylococcus aureus): 0.5 mg/L

Structure (SMILES): CC(=O)NC[C@H]1CN(c2ccc(N3CCN(c4ccccc4)CC3)c(F)c2)C(=O)O1 [3/4 hydrate, (S)—[N-3-(3′-fluoro-4′-(4″-phenylpiperazinyl))phenyl-2-oxo-5-oxazolidinyl]methyl acetamide 3/4 hydrate]
- Solubility compared with the anhydride [1]: sometimes more soluble than the anhydride
- Result ([1]; solvent 0.1N Hydrochloric acid): Dissolved
- Result ([1]; solvent 0.1N Sodium hydroxide): Insoluble
- Result ([1]; solvent Acetonitrile): Dissolved
- Result ([1]; solvent Ethanol): Dissolved
- Result ([1]; solvent Methanol): Dissolved
- Result ([1]; solvent Water, listed as ¾ hydrate, hydrate): Dissolved
- MIC50 [2]: 1 mg/L
- MIC90 [2]: 1 mg/L
- MICrange [2]: 0.5 to 1 µg/mL
- MIC [2, 4]: 0.5 mg/L
- MIC [2, 5]: 1 mg/L
- MIC [2, 6]: 1 mg/L
- MIC [2, 7]: 0.5 mg/L
- MIC [2, 8]: 1 mg/L
- MIC [2, 9]: 1 mg/L
- MIC [2, 10]: 1 mg/L
- MIC [2, 11]: 1 mg/L
- MIC [2, 12]: 0.5 mg/L
- MIC [2, 13]: 1 mg/L
- MIC50 (E. feacium): 2 mg/L
- MIC90 (E. feacium): 4 mg/L
- MICrange (E. feacium): 1 to 4 µg/mL
- MIC (E. feacium; strain Efm 98 (Table 8 No. 21)): 2 mg/L
- MIC (E. feacium; [14]): 2 mg/L
- MIC (E. feacium; [15]): 1 mg/L
- MIC (E. feacium; strain Efm N3 (Table 8 No. 23)): 4 mg/L
- MIC (E. feacium; strain Efm N4 (Table 8 No. 24)): 4 mg/L
- MIC50 (S. epidermidis MSSE): 0.5 mg/L
- MIC90 (S. epidermidis MSSE): 1 mg/L
- MICrange (S. epidermidis MSSE): 0.5 to 1 µg/mL
- MIC (S. epidermidis MSSE; [16]): 0.5 mg/L
- MIC (S. epidermidis MSSE; [17]): 1 mg/L
- MIC (S. epidermidis MSSE; [18]): 0.5 mg/L
- MIC (S. epidermidis MSSE; [19]): 0.5 mg/L
- MIC (S. epidermidis MSSE; [20]): 0.5 mg/L
- MIC (S. epidermidis MSSE; [21]): 1 mg/L
- MIC (S. epidermidis MSSE; [22]): 1 mg/L
- MIC (S. epidermidis MSSE; [23]): 0.5 mg/L
- MIC (S. epidermidis MSSE; [24]): 1 mg/L
- MIC (S. epidermidis MSSE; [25]): 1 mg/L
- MIC50 [3]: 1 mg/L
- MIC90 [3]: 1 mg/L
- MICrange [3]: 0.5 to 1 µg/mL
- MIC [3, 26]: 1 mg/L
- MIC [3, 27]: 1 mg/L
- MIC [3, 28]: 1 mg/L
- MIC [3, 29]: 1 mg/L
- MIC [3, 30]: 0.5 mg/L
- MIC [3, 31]: 1 mg/L
- MIC [3, 32]: 0.5 mg/L
- MIC [3, 33]: 0.5 mg/L
- MIC [3, 34]: 1 mg/L
- MIC [3, 35]: 1 mg/L
- MIC [3, 36]: 1 mg/L
- MIC50 (S. epidermidis MRSE): 1 mg/L
- MIC90 (S. epidermidis MRSE): 1 mg/L
- MICrange (S. epidermidis MRSE): 1 µg/mL
- MIC (S. epidermidis MRSE; [37]): 1 mg/L
- MIC (S. epidermidis MRSE; [38]): 1 mg/L
- MIC (S. epidermidis MRSE; [39]): 1 mg/L
- MIC (S. epidermidis MRSE; [40]): 1 mg/L
- MIC (S. epidermidis MRSE; [41]): 1 mg/L
- MIC (S. epidermidis MRSE; [42]): 1 mg/L
- MIC (S. epidermidis MRSE; [43]): 1 mg/L
- MIC (S. epidermidis MRSE; [44]): 1 mg/L
- MIC (S. epidermidis MRSE; [45]): 1 mg/L
- MIC (S. epidermidis MRSE; [46]): 1 mg/L
- MIC50 (E. feacalis): 2 mg/L
- MIC90 (E. feacalis): 4 mg/L
- MICrange (E. feacalis): 1 to 4 µg/mL
- MIC (E. feacalis; strain Efa 54 (Table 8 No. 20)): 2 mg/L
- MIC (E. feacalis; [47]): 2 mg/L
- MIC (E. feacalis; [48]): 1 mg/L
- MIC (E. feacalis; [49]): 2 mg/L
- MIC (E. feacalis; [50]): 4 mg/L
- MIC (Staphylococcus aureus): 1 mg/L
